Results as given in PubChem BioAssay AID2060501 (Molecular Pharmacology Branch, DTP, NCI, 2025).
pIC50: −log10 of the molar value. “And” between values parts separate entries of the source, which are not always exact repeats. Equal entries are not always repeated.

Test system: 282377-053-R-J1-PDC complex spheroids, viability
Assay: Anticancer human tumor 282377-053-R-J1-PDC patient-derived colon adenocarcinoma cell line growth inhibition [GQUAD]
Conditions: for viability, T/C: stronger effect = lower value
Source text: DNA G-quadruplex Stabilizer Agents in Combinations in Complex Spheroids
A high-throughput screen of multi-cell type tumor spheroids was designed to identify active combinations of DNA G-quadruplex stabilizer agents and targeted small molecules. Complex spheroids include a stromal component modeled by human endothelial cells (HUVEC) and fibroblasts modeled by human mesenchymal stem cells (MSCs). The concentration ranges selected for each drug and investigational agent were based upon clinically achievable concentrations if the clinical Cmax of the agent was known.
Compounds. The drugs and investigational agents: pidnarulex (CX-5461; NSC782164), APTO-253 (NSC789042), BRACO-19 (NSC847499), peposertib (NSC802822), ceralasertib (NSC780249), elimusertib (NSC800525), camonsertib (NSC841442), AZD-1390 (NSC803789), olaparib (NSC753686), talazoparib (NSC767125), ART-558 (NSC835418), sotorasib (NSC818433), MRTX-1133 (NSC836407), SN-38 (NSC673596), topotecan (NSC609699), etoposide (NSC141540), doxorubicin (NSC123127), gemcitabine (NSC613327), 5-fluorouracil (NSC19893), paclitaxel (NSC125973), vemurafenib (NSC761431), panobinostat (NSC761190), R-306465 (JNJ-16241199; NSC773264), adavosertib (NSC754352), TP-3654 (NSC805149), carboplatin (NSC241240), KSQ-4279 (NSC840948), and staurosporine (NSC755774) were obtained from the National Cancer Institute (NCI) Developmental Therapeutics Program Chemical Repository (34). The FDA-approved anticancer drug set is available from the NCI Developmental Therapeutics Program. […] The stock solutions were prepared in dimethyl sulfoxide (DMSO, Sigma-Aldrich, St. Louis, MO, cat. D2650) at 800-fold the tested concentration and stored at -70 degrees C prior to their use. All drugs and investigational agents were tested over a range starting from a high concentration at or near the clinical Cmax and decreasing in half-log increments. If the clinical Cmax for an agent had not been determined, the highest concentration tested was 10 microM.
2.3 Cell Culture. All cells were maintained in an incubator at 37 degrees C and 5% CO2 with 95% humidity. The PDC lines were cultured according to standard operating procedures established by the NCI PDMR. All PDCs were thawed and cultured in Matrigel-coated flasks prepared with a working solution of 1X Ham's F-12 nutrient mix, without supplementation (Invitrogen, cat. 11765054), 100 U/mL penicillin-streptomycin (Invitrogen, cat. 15140122), and 2.5% Matrigel (Corning Inc., cat. 354248) for the first three passages. The 857933-349-R-J2-PDC line was cultured in 6C/Colon 1B media, which includes advanced DMEM/F-12 (Thermo Fisher Scientific, cat. 12634028), 10 mM HEPES (Thermo Fisher Scientific, cat. 15630080), 1X GlutaMAX supplement (Thermo Fisher Scientific, cat. 35050061), 0.1 mg/mL primocin (InvivoGen, cat. ant-pm-2), 10% defined fetal bovine serum, heat inactivated (HyClone Laboratories Inc., cat. SH30070.03HI), 50% L-WRN conditioned media (ATCC, cat. CRL-3276), 1.25 mM N-Acetyl-L-cysteine (Sigma-Aldrich, cat. A9165), 10 mM nicotinamide (Sigma-Aldrich, cat. N0636), 1X B-27 supplement (Thermo Fisher Scientific, cat. 17504044), 1X N-2 supplement (Thermo Fisher Scientific, cat. 17502048), 10 microM Y-27632 dihydrochloride (Tocris Bioscience, cat. 1254), and 50 ng/mL human EGF recombinant protein (Thermo Fisher Scientific, cat. PHG0311). The 485176-168-R4-J1-PDC line was cultured in Panc media, which includes all 6C/Colon 1B media components plus 100 ng/mL human FGF-10 (Thermo Fisher Scientific, cat. 100-26), 500 nM SB-431542 (Selleckchem, cat. S1067), and gastrin (Tocris, cat. 3006).
[…]
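Further: spheroids exposed to compounds for 7 days before readout.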
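Wherever viability, T/C is given: percent of vehicle DMSO control viability with 100% = untreated-like growth.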

SMILES: Cn1ncnc1[C@H]1c2n[nH]c(=O)c3cc(F)cc(c23)N[C@@H]1c1ccc(F)cc1
- viability, T/C (compound 0.000999 µM): 109% and 105% and 89.3%
- viability, T/C (compound 0.00316 µM): 106% and 88.2% and 91.4%
- viability, T/C (compound 0.00999 µM): 106% and 94.9% and 99.7%
- viability, T/C (compound 0.0316 µM): 85% and 109% and 106%
- viability, T/C (compound 0.0999 µM): 106% and 97.6% and 113%
- viability, T/C (compound 0.316 µM): 96.5% and 113% and 105%
- pIC50 (curve of compound): < 6.50

SMILES: Nc1ccn(C2OC(CO)C(O)C2(F)F)c(=O)n1 (centres undefined) + Cc1cnc(CNC(=O)c2c(=O)c3ccc(N4CCCN(C)CC4)nc3n3c2sc2ccccc23)cn1
- pIC50 (curve of first compound, second compound 0.0316 µM): 6.80
- pIC50 (curve of first compound, second compound 0.1 µM): 6.84
- pIC50 (curve of first compound, second compound 0.316 µM): 6.92
- pIC50 (curve of first compound, second compound 1 µM): 7.31
- pIC50 (curve of first compound, second compound 3.16 µM): > 7.50
- pIC50 (curve of first compound, second compound 10 µM): > 7.50
- viability, T/C (second compound 0.0316 µM, first compound 0.0316 µM): 98.5%
- viability, T/C (second compound 0.0316 µM, first compound 0.1 µM): 65.9%
- viability, T/C (second compound 0.0316 µM, first compound 0.316 µM): 25.2%
- viability, T/C (second compound 0.0316 µM, first compound 1 µM): 24%
- viability, T/C (second compound 0.0316 µM, first compound 3.16 µM): 22.9%
- viability, T/C (second compound 0.0316 µM, first compound 10 µM): 16.7%
- viability, T/C (second compound 0.1 µM, first compound 0.0316 µM): 104%
- viability, T/C (second compound 0.1 µM, first compound 0.1 µM): 61.7%
- viability, T/C (second compound 0.1 µM, first compound 0.316 µM): 24.5%
- viability, T/C (second compound 0.1 µM, first compound 1 µM): 24.9%
- viability, T/C (second compound 0.1 µM, first compound 3.16 µM): 25.1%
- viability, T/C (second compound 0.1 µM, first compound 10 µM): 16.3%
- viability, T/C (second compound 0.316 µM, first compound 0.0316 µM): 81.6%
- viability, T/C (second compound 0.316 µM, first compound 0.1 µM): 53.6%
- viability, T/C (second compound 0.316 µM, first compound 0.316 µM): 32%
- viability, T/C (second compound 0.316 µM, first compound 1 µM): 22.1%
- viability, T/C (second compound 0.316 µM, first compound 3.16 µM): 22.7%
- viability, T/C (second compound 0.316 µM, first compound 10 µM): 16.2%
- viability, T/C (second compound 1 µM, first compound 0.0316 µM): 53.9%
- viability, T/C (second compound 1 µM, first compound 0.1 µM): 44.1%
- viability, T/C (second compound 1 µM, first compound 0.316 µM): 25.6%
- viability, T/C (second compound 1 µM, first compound 1 µM): 22.4%
- viability, T/C (second compound 1 µM, first compound 3.16 µM): 20.4%
- viability, T/C (second compound 1 µM, first compound 10 µM): 15.7%
- viability, T/C (second compound 3.16 µM, first compound 0.0316 µM): 49.1%
- viability, T/C (second compound 3.16 µM, first compound 0.1 µM): 37.5%
- viability, T/C (second compound 3.16 µM, first compound 0.316 µM): 23.2%
- viability, T/C (second compound 3.16 µM, first compound 1 µM): 21%
- viability, T/C (second compound 3.16 µM, first compound 3.16 µM): 22.4%
- viability, T/C (second compound 3.16 µM, first compound 10 µM): 15.9%
- viability, T/C (second compound 10 µM, first compound 0.0316 µM): 39.2%
- viability, T/C (second compound 10 µM, first compound 0.1 µM): 33.5%
- viability, T/C (second compound 10 µM, first compound 0.316 µM): 22.1%
- viability, T/C (second compound 10 µM, first compound 1 µM): 20.3%
- viability, T/C (second compound 10 µM, first compound 3.16 µM): 20%
- viability, T/C (second compound 10 µM, first compound 10 µM): 10.8%
